Results: patent US20240101496A1, “SYNERGISTIC ACTION OF DCD AND ALKOXYPYRAZOLES AS NITRIFICATION INHIBITORS” (BASF SE, priority 2021, published 2024)

Columns and labels:
[1] = system: nitrification in soil Limburgerhof; experiment: Inhibition of nitrification in soil, Experiment 1 (incubation 28 days)
Protocol: (§1) The mixtures of the invention were tested as follows in terms of the inhibition of nitrification:
(§2) 100 g soil (soil Limburgerhof with pH(CaCl2) 6.8; 73% sand, 23% silt, 4% clay, which is classified according to FAO as a sandy loam) is filled into 500 ml plastic bottles and is moistened to 50% water holding capacity. The soil is incubated at 20° C. for two weeks prior to the experiments to activate the microbial biomass. 1 ml test solution, containing the components of the mixture in the appropriate concentration (usually from 0.1 to 3.13% (w/w) of fertilized NH4—N), and 10 mg nitrogen in the form of ammoniumsulfate-N(NH4—N) is added to the soil and everything mixed well. Unfertilized controls received 1 ml pure water. Bottles are capped but loosely to allow air exchange. The bottles are then incubated at 20° C. for 0 and 28 days in Experiment 1, and for 0 and 42 days in Experiment 2.
(§3) For analysis, 300 ml of a 1% K2SO4-solution is added to the bottle containing the soil and shaken for 2 hours in a horizontal shaker at 150 rpm. Then the whole solution is filtered through a filter (Macherey-Nagel Filter MN 807 ¼). Ammonium and nitrate content is then analyzed in the filtrate using an autoanalyzer. Ammonium was quantified via an indophenol blue dye at 660 nm, and nitrate via an azo dye at 540 nm.
(§4) The nitrification inhibition is expressed as % of NH4—N recovery from fertilized NH4—N(100%) after subtraction of unfertilized control soil, and as % inhibition of NO3—N formation (% reduction of NO3^− production) according to the formula:
(§5) In every experiment three tests (n=3) regarding the inhibition of nitrification were performed in each case.
(§6) The results were compared with the results calculated by Colby (Colby, S.R., Calculating synergistic and antagonistic responses of herbicide combinations, Weeds, 15, pp. 20-22, 1967) for an additive effect.
(§7) Colby's formula:E=x+y−x·y/100 • E=expected efficacy, expressed in % of the untreated control, when using the mixture comprising the components (i) and (ii) at concentrations a and b; • x=efficacy, expressed in % of the untreated control, when using component (i) at the concentration a; • y=efficacy, expressed in % of the untreated control, when using component (ii) at the concentration b.

[2] = system: nitrification in soil Limburgerhof; experiment: Inhibition of nitrification in soil, Experiment 2 (incubation 42 days)
Protocol: as §1, §2, §3, §4, §5, §6, §7

[3] = system: nitrification in soil Limburgerhof; experiment: Inhibition of nitrification in soil, mixtures with R^1 is CH2CH3, tested analogously (50 g soil, 4 replicates, 28 and 42 days); conditions: R^1 is CH2CH3 series
Protocol: as §2, §3
The nitrification inhibition is expressed as % of NH4—N recovery from fertilized NH4—N(100%) after subtraction of unfertilized control soil, and as % inhibition of NO3—N formation (% reduction of NO3^− production) according to the formula: […]
as §6, §7
The following mixtures were tested analogously using 50 g soil Limburgerhof as defined above and ammonium sulfate as fertilizer in an amount N of 10 mg NH4N/100 g soil (number of replicates: 4)

[4] = (i) 0.1, (ii) 0 wt.-% relative to NH4—N
[5] = (i) 0.2, (ii) 0 wt.-% relative to NH4—N
[6] = (i) 0.4, (ii) 0 wt.-% relative to NH4—N
[7] = (i) 0.8, (ii) 0 wt.-% relative to NH4—N
[8] = (i) 0.3, (ii) 0 wt.-% relative to NH4—N
[9] = (i) 0.9, (ii) 0 wt.-% relative to NH4—N
[10] = (i) 2.7, (ii) 0 wt.-% relative to NH4—N
[11] = (i) 0, (ii) 0.5 wt.-% relative to NH4—N
[12] = (i) 0, (ii) 1 wt.-% relative to NH4—N
[13] = (i) 0, (ii) 2 wt.-% relative to NH4—N
[14] = (i) 0, (ii) 0.2 wt.-% relative to NH4—N
[15] = (i) 0, (ii) 1.25 wt.-% relative to NH4—N
[16] = (i) 0, (ii) 3.13 wt.-% relative to NH4—N

COc1cc(C)n[nH]1 [Component (i)]
% Inhibition of NO3^− production after 28 days, Measured [1, 4]: 0.5% | % NH4—N recovery from fertilized NH4—N after 28 days, Measured [1, 4]: 0.7% | % Inhibition of NO3^− production after 28 days, Measured [1, 5]: 25.8% | % NH4—N recovery from fertilized NH4—N after 28 days, Measured [1, 5]: 17.2% | % Inhibition of NO3^− production after 28 days, Measured [1, 6]: 44.2% | % NH4—N recovery from fertilized NH4—N after 28 days, Measured [1, 6]: 41.8% | % Inhibition of NO3^− production after 28 days, Measured [1, 7]: 67.6% | % NH4—N recovery from fertilized NH4—N after 28 days, Measured [1, 7]: 62.6% | % Inhibition of NO3^− production after 42 days, Measured [2, 4]: 2.5% | % Inhibition of NO3^− production after 42 days, Measured [2, 8]: 12.2% | % NH4—N recovery from fertilized NH4—N after 42 days, Measured [2, 8]: 1.9% | % Inhibition of NO3^− production after 42 days, Measured [2, 9]: 42.1% | % NH4—N recovery from fertilized NH4—N after 42 days, Measured [2, 9]: 29.6% | % Inhibition of NO3^− production after 42 days, Measured [2, 10]: 83.8% | % NH4—N recovery from fertilized NH4—N after 42 days, Measured [2, 10]: 64.4%

N#CN=C(N)N [Component (ii), Dicyandiamide]
% Inhibition of NO3^− production after 28 days, Measured ([1]; (i) 0, (ii) 0.25 wt.-% relative to NH4—N): −1.2% | % Inhibition of NO3^− production after 28 days, Measured [1, 11]: 7.7% | % Inhibition of NO3^− production after 28 days, Measured [1, 12]: 3.5% | % NH4—N recovery from fertilized NH4—N after 28 days, Measured [1, 12]: 0.8% | % Inhibition of NO3^− production after 28 days, Measured [1, 13]: 16.3% | % NH4—N recovery from fertilized NH4—N after 28 days, Measured [1, 13]: 9.0% | % Inhibition of NO3^− production after 42 days, Measured [2, 14]: 9.2% | % NH4—N recovery from fertilized NH4—N after 42 days, Measured [2, 14]: 0% | % Inhibition of NO3^− production after 42 days, Measured [2, 11]: 10.4% | % Inhibition of NO3^− production after 42 days, Measured [2, 15]: 10.0% | % Inhibition of NO3^− production after 42 days, Measured [2, 16]: 15.4% | % Inhibition of NO3^− production after 28 days, Measured [3, 15]: 4.3% | % Inhibition of NO3^− production after 42 days, Measured [3, 15]: 4.0% | % NH4—N recovery from fertilized NH4—N after 28 days, Measured [3, 15]: 0.0% | % NH4—N recovery from fertilized NH4—N after 42 days, Measured [3, 15]: 0.0% | % Inhibition of NO3^− production after 28 days, Measured [3, 16]: 15.7% | % Inhibition of NO3^− production after 42 days, Measured [3, 16]: 4.0% | % NH4—N recovery from fertilized NH4—N after 28 days, Measured [3, 16]: 0.0% | % NH4—N recovery from fertilized NH4—N after 42 days, Measured [3, 16]: 0.0%
